Experimental data taken from patent US20140350014A1, “COMPOUNDS FOR INHIBITING THE INTERACTION OF BCL2 WITH BINDING PARTNERS” (NOVARTIS AG, priority 2011, published 2014).

Key:
[1] = target: BCL-2 binding to BAD peptide (Homo sapiens, UniProt P10415); assay: BCL2 SPR solution inhibition assay, BAD peptide surface (Biacore A100); details: read-out: BCL2_SPR IC50 BAD
Text: (§1) 33The present method includes utility of a Surface plasmon resonance (SPR)-based biosensor (Bia34core™′ GE Healthcare, Uppsala, Sweden) to characterize BCL-2 inhibitors. 35
(§2) 36Biacore™ utilizes the phenomenon of surface plasmon resonance (SPR) to detect and measure 37binding interactions. In a typical Biacore experiment, one of the interacting molecules (ligand) is i38mmobilized on a flexible dextran matrix while the interacting partner (analyte) is allowed to fl39ow across that surface. A binding interaction results in an increase in mass on the sensor surface 40and a corresponding direct change in the refractive index of the medium in the vicinity of the 41sensor surface. Changes in refractive index or signal are recorded in resonance units (R.U.) Signal 42changes due to association and dissociation of complexes are monitored in a non-invasive manne43r, continuously and in real-time, the results of which are reported in the form of a sensorgram.44
(§3) The SPR assay is con45figured to examine solution inhibition of BCL-2 binding to peptide derivatized sensor surfa46ces to generate IC50 values as a measure of inhibitor potency.
(§4) Biacore™ A100 (GE Healthcare, Uppsala, Sweden) was used to conduct all experiments reported herein. Sensor surface preparation and all interaction analyses experiments were performed at 25° C. Reagents were purchased from GE Healthcare. Running buffer containing 10 mM Hepes, pH7.4, 150 mM sodium chloride, 1.25 mM Dithiothreitol, 3% Dimethyl sulfoxide and 0.05% polysorbate 20 were utilized throughout all analyses.
(§5) Biotinylated BAK, BAD and NOXA peptides were diluted to 10 nM in running buffer and captured onto a sensor surface pre-derivatized with streptavidin (sensor chip SA) to peptide surface densities in the range 50-100 R.U. Peptide captured surfaces were blocked with 500 μM PEO2-Biotin.
(§6) Interaction analyses were performed by first equilibrating each sample within a 6 point three fold compound dilution series in the range 16 μM to […] with 56 nM BCL-2 for one hour during instrument start-up procedures. Protein compound mixtures were then injected over each peptide surface in parallel for 60 seconds at a flow-rate of 30 μL/min. 56 nM BCL-2 control samples were also prepared and run at regular intervals during the assay. Surface regeneration was performed at the end of each analysis cycle by two 30 second injections of 10 mM Glycine, pH 2.5, 1M Sodium Chloride, 0.05% polysorbate 20. Samples and control compound samples were run in duplicate and controls are also run at regular intervals during the assay to monitor surface and assay performance.
(§7) Data analyses are carried out using Biacore™ A100 evaluation software v1.1 to validate assay quality. Binding level report points were used relative to BCL-2 control samples to calculate % inhibition values for each compound protein mixture. […] The range of data shown in table 1 represents the high and low IC50 values obtained from multiple experiments.

[2] = target: BCL-2 binding to BAK peptide (Homo sapiens, UniProt P10415); assay: BCL2 SPR solution inhibition assay, BAK peptide surface (Biacore A100); details: read-out: BCL2_SPR IC50 BAK
BCL-2 binding to BAK peptide, sequence (P10415 whole entry): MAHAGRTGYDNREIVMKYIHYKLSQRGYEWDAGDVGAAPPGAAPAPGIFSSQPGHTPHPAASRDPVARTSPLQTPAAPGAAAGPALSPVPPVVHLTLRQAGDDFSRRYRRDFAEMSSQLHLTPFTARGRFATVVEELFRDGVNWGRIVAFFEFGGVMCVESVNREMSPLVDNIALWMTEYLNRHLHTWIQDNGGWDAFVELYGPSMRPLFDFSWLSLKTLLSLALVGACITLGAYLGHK
Text: as §1, §2, §3, §4, §5, §6, §7

BCL-2 binding to BAD peptide, sequence (P10415 whole entry): as above

## CCCCN(CCCC)C(=O)c1cc(C)n(-c2ccc(-c3ccc(C(=O)NCC)c(F)c3)cc2C(=O)N2Cc3ccccc3C[C@H]2CO)n1 [Example 37]
[1]
  IC50: 312 to 319 nM
[2]
  IC50: 239 to 240 nM

## CCCCN(CCCC)C(=O)c1nn(-c2ccc(-c3ccc(N)nc3)cc2C(=O)N2Cc3ccccc3C[C@H]2CO)c(C)c1Cl [Example 6]
[1]
  IC50: 231 to 288 nM
[2]
  IC50: 210 to 252 nM

## CCCCN(CCCC)C(=O)c1nn(-c2ccc(-c3cn[nH]c3)cc2C(=O)N2Cc3ccccc3C[C@H]2CO)c(C)c1Cl [Example 14]
[1]
  IC50: 277 to 315 nM
[2]
  IC50: 189 to 213 nM

## CCCCN(CCCC)C(=O)c1cc(C)n(-c2ccc(-c3cc(Cl)ccc3OC)cc2C(=O)N2Cc3ccccc3C[C@H]2CO)n1 [Example 54]
[1]
  IC50: 938 to 952 nM
[2]
  IC50: 803 to 845 nM

## CCCCN(CCCC)C(=O)c1cc(C)n(-c2ccc(-c3ccc(F)c(C)c3)cc2C(=O)N2Cc3ccccc3C[C@H]2CO)n1 [Example 28]
[1]
  IC50: 919 to 1070 nM
[2]
  IC50: 802 to 913 nM

## CCCCN(CCCC)C(=O)c1cc(C)n(-c2ccc(-c3cccc(OC)c3)cc2C(=O)N2Cc3ccccc3C[C@H]2CO)n1 [Example 49]
[1]
  IC50: 896 to 978 nM
[2]
  IC50: 626 to 696 nM

## CCCCN(CCCC)C(=O)c1cc(C)n(-c2ccc(N3CCN(Cc4ccccc4Cl)C(=O)C3)cc2C(=O)N2Cc3ccccc3C[C@H]2CO)n1 [Example 21]
[1]
  IC50: 180 to 202 nM
[2]
  IC50: 179 to 190 nM

## CCCCN(CCCC)C(=O)c1cc(C)n(-c2ccc(-c3ccc(N(C)C)cc3)cc2C(=O)N2Cc3ccccc3C[C@H]2CO)n1 [Example 68]
[1]
  IC50: 1160 to 1210 nM
[2]
  IC50: 1050 to 1100 nM

## CCCCN(CCCC)C(=O)c1cc(C)n(-c2ccc(N3CCN(c4ccccc4)CC3)cc2C(=O)N2Cc3ccccc3C[C@H]2CO)n1 [Example 15]
[1]
  IC50: 668 to 770 nM
[2]
  IC50: 552 to 713 nM

## CCCCN(CCCC)C(=O)c1cc(C)n(-c2ccc(-c3ccc(OC)c4ccccc34)cc2C(=O)N2Cc3ccccc3C[C@H]2CO)n1 [Example 46]
[1]
  IC50: > 16000 nM
[2]
  IC50: > 16000 nM

## CCCCN(CCCC)C(=O)c1cc(C)n(-c2ccc(N3CCN(Cc4ccc(Cl)cc4)C(=O)C3)cc2C(=O)N2Cc3ccccc3C[C@H]2CO)n1 [Example 3, (S)—N,N-dibutyl-1-(4-(4-(4-chlorobenzyl)-3-oxopiperazin-1-yl)-2-(3-(hydroxymethyl)-1,2,3,4-tetrahydroisoquinoline-2-carbonyl)phenyl)-5-methyl-1H-pyrazole-3-carboxamide]
[1]
  IC50: 474 to 506 nM
[2]
  IC50: 512 to 515 nM

## CCCCN(CCCC)C(=O)c1nn(-c2ccc(-c3ccc(OC)nc3)cc2C(=O)N2Cc3ccccc3C[C@H]2CO)c(C)c1Cl [Example 10]
[1]
  IC50: 843 to 958 nM
[2]
  IC50: 790 to 906 nM

## CCCCN(CCCC)C(=O)c1cc(C)n(-c2ccc(N3CCOCC3)cc2C(=O)N2Cc3ccccc3C[C@H]2CO)n1 [Example 1, (S)—N,N-dibutyl-1-(2-(3-(hydroxymethyl)-1,2,3,4-tetrahydroisoquinoline-2-carbonyl)-4-morpholinophenyl)-5-methyl-1H-pyrazole-3-carboxamide]
[1]
  IC50: 1400 to 1520 nM
[2]
  IC50: 725 to 860 nM

## CCCCN(CCCC)C(=O)c1cc(C)n(-c2ccc(-c3ccc(Cl)c(C(=O)NC)c3)cc2C(=O)N2Cc3ccccc3C[C@H]2CO)n1 [Example 35]
[1]
  IC50: 515 to 547 nM
[2]
  IC50: 357 to 366 nM

## CCCCN(CCCC)C(=O)c1cc(C)n(-c2ccc(N3CCN(C)CC3)cc2C(=O)N2Cc3ccccc3C[C@H]2CO)n1 [Example 17]
[1]
  IC50: 2640 to 3050 nM
[2]
  IC50: 1570 to 1640 nM

## CCCCN(CCCC)C(=O)c1cc(C)n(-c2ccc(-c3cccc(S(C)(=O)=O)c3)cc2C(=O)N2Cc3ccccc3C[C@H]2CO)n1 [Example 38]
[1]
  IC50: 885 to 891 nM
[2]
  IC50: 632 to 656 nM

## CCCCN(CCCC)C(=O)c1cc(C)n(-c2ccc(-c3cc(F)cc(OC(C)C)c3)cc2C(=O)N2Cc3ccccc3C[C@H]2CO)n1 [Example 59]
[1]
  IC50: 635 to 652 nM
[2]
  IC50: 540 to 583 nM

## CCCCN(CCCC)C(=O)c1cc(C)n(-c2ccc(-c3ccc(Cl)cc3)cc2C(=O)N2Cc3ccccc3C[C@H]2CO)n1 [Example 63]
[1]
  IC50: 2070 to 2140 nM
[2]
  IC50: 1710 to 1850 nM

## CCCCN(CCCC)C(=O)c1cc(C)n(-c2ccc(-c3ccc(S(=O)(=O)N4CCCCC4)cc3)cc2C(=O)N2Cc3ccccc3C[C@H]2CO)n1 [Example 26]
[1]
  IC50: 584 to 672 nM
[2]
  IC50: 437 to 484 nM

## CCCCN(CCCC)C(=O)c1cc(C)n(-c2ccc(-c3ccc(NC(C)=O)cc3)cc2C(=O)N2Cc3ccccc3C[C@H]2CO)n1 [Example 33]
[1]
  IC50: 455 to 553 nM
[2]
  IC50: 339 to 434 nM

## CCCCN(CCCC)C(=O)c1cc(C)n(-c2ccc(-c3cc(F)cc(C(=O)NC)c3)cc2C(=O)N2Cc3ccccc3C[C@H]2CO)n1 [Example 61]
[1]
  IC50: 458 to 474 nM
[2]
  IC50: 331 to 344 nM

## CCCCN(CCCC)C(=O)c1cc(C)n(-c2ccc(N3CCN(Cc4ccccc4)C(=O)C3)cc2C(=O)N2Cc3ccccc3C[C@H]2CO)n1 [Example 20]
[1]
  IC50: 136 to 143 nM
[2]
  IC50: 119 to 137 nM

## CCCCN(CCCC)C(=O)c1cc(C)n(-c2ccc(N3CCN(C(=O)OC(C)(C)C)CC3=O)cc2C(=O)N2Cc3ccccc3C[C@H]2CO)n1 [Example 16]
[1]
  IC50: 2020 to 2210 nM
[2]
  IC50: 1340 to 1450 nM

## CCCCN(CCCC)C(=O)c1cc(C)n(-c2ccc(N3CCOCC3=O)cc2C(=O)N2Cc3ccccc3C[C@H]2CO)n1 [Example 19]
[1]
  IC50: 11200 to 12200 nM
[2]
  IC50: 6060 to 6600 nM

## CCCCN(CCCC)C(=O)c1cc(C)n(-c2ccc(N3CCN(Cc4cccc(Cl)c4)C(=O)C3)cc2C(=O)N2Cc3ccccc3C[C@H]2CO)n1 [Example 23]
[1]
  IC50: 162 nM
[2]
  IC50: 148 to 155 nM

## CCCCN(CCCC)C(=O)c1cc(C)n(-c2ccc(-c3ccc(OC(C)C)cc3)cc2C(=O)N2Cc3ccccc3C[C@H]2CO)n1 [Example 55]
[1]
  IC50: 722 to 764 nM
[2]
  IC50: 564 to 617 nM

## CCCCN(CCCC)C(=O)c1cc(C)n(-c2ccc(-c3cccc4cnccc34)cc2C(=O)N2Cc3ccccc3C[C@H]2CO)n1 [Example 53]
[1]
  IC50: 811 to 996 nM
[2]
  IC50: 607 to 779 nM

## CCCCN(CCCC)C(=O)c1cc(C)n(-c2ccc(-c3ccc(C(=O)O)cc3)cc2C(=O)N2Cc3ccccc3C[C@H]2CO)n1 [Example 13]
[1]
  IC50: 133 to 165 nM
[2]
  IC50: 105 to 129 nM

## CCCCN(CCCC)C(=O)c1cc(C)n(-c2ccc(-c3ccccc3C#N)cc2C(=O)N2Cc3ccccc3C[C@H]2CO)n1 [Example 40]
[1]
  IC50: 6490 to 7830 nM
[2]
  IC50: 4940 to 5880 nM

## CCCCN(CCCC)C(=O)c1cc(C)n(-c2ccc(-c3cccc(Cl)c3)cc2C(=O)N2Cc3ccccc3C[C@H]2CO)n1 [Example 27]
[1]
  IC50: 744 to 783 nM
[2]
  IC50: 520 to 599 nM

## CCCCN(CCCC)C(=O)c1cc(C)n(-c2ccc(N3CCN(Cc4ccccc4)CC3)cc2C(=O)N2Cc3ccccc3C[C@H]2CO)n1 [Example 22]
[1]
  IC50: 202 to 231 nM
[2]
  IC50: 220 to 272 nM

## CCCCN(CCCC)C(=O)c1nn(-c2ccc(-c3ccc(N(C)C)nc3)cc2C(=O)N2Cc3ccccc3C[C@H]2CO)c(C)c1Cl [Example 8]
[1]
  IC50: 745 to 750 nM
[2]
  IC50: 767 to 786 nM

## CCCCN(CCCC)C(=O)c1cc(C)n(-c2ccc(-c3ccc(F)cc3Cl)cc2C(=O)N2Cc3ccccc3C[C@H]2CO)n1 [Example 64]
[1]
  IC50: 4460 to 4810 nM
[2]
  IC50: 3380 to 4000 nM

## CCCCN(CCCC)C(=O)c1cc(C)n(-c2ccc(-c3cccc(Cl)c3Cl)cc2C(=O)N2Cc3ccccc3C[C@H]2CO)n1 [Example 45]
[1]
  IC50: 7160 to 7600 nM
[2]
  IC50: 7410 to 7540 nM

## CCCCN(CCCC)C(=O)c1cc(C)n(-c2ccc(-c3ccc(S(C)(=O)=O)cc3)cc2C(=O)N2Cc3ccccc3C[C@H]2CO)n1 [Example 60]
[1]
  IC50: 608 to 612 nM
[2]
  IC50: 432 to 458 nM

## CCCCN(CCCC)C(=O)c1cc(C)n(-c2ccc(-c3ccccc3F)cc2C(=O)N2Cc3ccccc3C[C@H]2CO)n1 [Example 24]
[1]
  IC50: 3010 to 3410 nM
[2]
  IC50: 3360 to 4630 nM

## CCCCN(CCCC)C(=O)c1cc(C)n(-c2ccc(-c3c(C)noc3C)cc2C(=O)N2Cc3ccccc3C[C@H]2CO)n1 [Example 41]
[1]
  IC50: 1930 to 2030 nM
[2]
  IC50: 1800 to 2550 nM

## CCCCN(CCCC)C(=O)c1cc(C)n(-c2ccc(-c3cccc(-c4nnc(C)o4)c3)cc2C(=O)N2Cc3ccccc3C[C@H]2CO)n1 [Example 62]
[1]
  IC50: 543 to 551 nM
[2]
  IC50: 763 to 799 nM

## CCCCN(CCCC)C(=O)c1cc(C)n(-c2ccc(-c3cnc4ccccc4c3)cc2C(=O)N2Cc3ccccc3C[C@H]2CO)n1 [Example 31]
[1]
  IC50: 177 to 178 nM
[2]
  IC50: 140 to 142 nM

## CCCCN(CCCC)C(=O)c1nn(-c2ccc(-c3cc[nH]n3)cc2C(=O)N2Cc3ccccc3C[C@H]2CO)c(C)c1Cl [Example 7]
[1]
  IC50: 739 to 770 nM
[2]
  IC50: 609 to 613 nM

## CCCCN(CCCC)C(=O)c1cc(C)n(-c2ccc(-c3ccc(C(=O)NC)c(Cl)c3)cc2C(=O)N2Cc3ccccc3C[C@H]2CO)n1 [Example 58]
[1]
  IC50: 151 to 152 nM
[2]
  IC50: 111 to 112 nM
